Results as given in ChEMBL document CHEMBL1201862, “PubChem BioAssay data set” (2004).
Activity calls are given as the source filed them.

Legend:
[1] = biological target: T1, Alkaline phosphatase, tissue-nonspecific isozyme (Homo sapiens, UniProt P05186)
T1 sequence (P05186 whole entry): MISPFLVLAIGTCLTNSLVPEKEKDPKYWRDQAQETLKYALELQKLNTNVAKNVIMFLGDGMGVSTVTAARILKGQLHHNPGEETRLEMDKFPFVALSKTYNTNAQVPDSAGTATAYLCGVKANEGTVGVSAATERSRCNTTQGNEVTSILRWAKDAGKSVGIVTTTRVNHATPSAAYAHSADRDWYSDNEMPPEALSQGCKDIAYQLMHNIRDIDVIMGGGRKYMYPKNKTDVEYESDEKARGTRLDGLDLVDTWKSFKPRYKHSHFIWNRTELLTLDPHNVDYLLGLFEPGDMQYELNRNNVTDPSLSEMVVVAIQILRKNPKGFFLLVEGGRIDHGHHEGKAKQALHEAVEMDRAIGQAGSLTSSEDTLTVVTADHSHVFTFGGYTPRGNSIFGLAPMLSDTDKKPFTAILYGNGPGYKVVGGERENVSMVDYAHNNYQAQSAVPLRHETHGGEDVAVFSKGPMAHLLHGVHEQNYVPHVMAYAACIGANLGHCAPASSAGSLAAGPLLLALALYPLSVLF

[2] = biological target: 1-acylglycerol-3-phosphate O-acyltransferase ABHD5/Perilipin-5 (Homo sapiens, UniProt Q00G26+Q8WTS1); assay: Luminescence-based biochemical high throughput dose response assay for inhibitors of the interaction of the lipase co-activator protein, abhydrolase domain containing 5 (ABHD5) with perilipin-5 (MLDP; PLIN5) (2K validation set). [Related pubchem assays (depositor defined):AID493035, AID493241]
[3] = biological target: Perilipin-1/ABHD5 (Homo sapiens, UniProt O60240+Q8WTS1); assay: Luminescence-based biochemical high throughput dose response assay for inhibitors of the interaction of the lipase co-activator protein, abhydrolase domain containing 5 (ABHD5) with perilipin-1 (PLIN1) (2K validation set). [Related pubchem assays (depositor defined):AID493027, AID493057]
[4] = biological target: Eukaryotic translation initiation factor 4H (Homo sapiens, UniProt Q15056); assay: eIF4H inhibition in translation initiation, SAR follow-up (AID 435011); format: functional
[5] = biological target: Polyadenylate-binding protein 1 (Homo sapiens, UniProt P11940); assay: PABP inhibition in translation initiation, SAR follow-up (AID 435018); format: functional
[6] = biological target: Lysosomal acid glucosylceramidase (Homo sapiens, UniProt P04062); assay: Dose response cell-based high throughput screening assay to identify enhancers of beta-glucosidase activity. [Related pubchem assays: 784 ]; format: functional
[7] = inhibitors of firefly luciferase expression or activity, dose response, H4 neuroglioma cells, luminescence (AID 1990); format: functional, cell-based
[8] = luciferase reporter signal reduction – luminescence, H4-C neuroglioblastoma cells, dose response (AID 2458); format: functional, cell-based;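 note: H4 neuroglioblastoma cells stably carrying a luciferase reporter gene fusion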
[9] = cells; format: functional, cell-based
[10] = Luminescence Cell-Based Dose Response HTS to Identify Inhibitors of 5'UTR Stem-Loop Driven Prion Protein mRNA Translation in H4 Neuroglioblastoma Cells. [Related pubchem assays: 1827 (Project Summary), 1813 (Primary HTS)]; format: functional
[11] = inhibitors of SNCA 5'UTR-driven reporter translation, confirmation, H4 neuroglioma cells, luminescence (AID 1988); format: functional, cell-based
[12] = inhibitors of intracellular T. cruzi replication, confirmation, NIH3T3 host cells, beta-gal luminescence (AID 2044); format: functional, cell-based;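 note: intracellular parasites grown in NIH/3T3 mouse fibroblasts as host cells; luminescent beta-galactosidase reporter signal from transgenic T. cruzi replicating inside host cells; inhibitors lower the luminescence signal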
[13] = cytotoxicity toward NIH3T3 fibroblasts, dose response, counter-screen, cell-based, ATP luminescence, mouse fibroblasts (AID 2010); format: functional;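 note: cells exposed to compound for about 90 hours before reading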
[14] = inhibitors of SNCA 5'UTR-driven translation, confirmation, luminescence, H4 neuroglioblastoma cells, dose confirmation (AID 2454); format: functional, cell-based;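 note: H4 neuroglioblastoma cells carrying an alpha-synuclein 5'UTR luciferase reporter; potency for inhibition of the luciferase signal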
[15] = cytotoxicity in HEK-293T cells, dose response, cytotoxicity control for TCR NF-kB inhibitor project, luminescence, T-cell screen hits (AID 489026); format: functional, cell-based;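 note: cells exposed to compound about 14 hours before the viability readout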
[16] = biological target: T2, RNA-binding protein pos-1 (Caenorhabditis elegans, UniProt G5EF15); assay: inhibitors of POS-1/mex-3 RNA binding, dose response, biochemical, fluorescence polarization (AID 1964);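 note: purified POS-1 fused to maltose binding protein made in E. coli; potency of compounds blocking POS-1 binding to fluorescent RNA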
T2 sequence (G5EF15 whole entry): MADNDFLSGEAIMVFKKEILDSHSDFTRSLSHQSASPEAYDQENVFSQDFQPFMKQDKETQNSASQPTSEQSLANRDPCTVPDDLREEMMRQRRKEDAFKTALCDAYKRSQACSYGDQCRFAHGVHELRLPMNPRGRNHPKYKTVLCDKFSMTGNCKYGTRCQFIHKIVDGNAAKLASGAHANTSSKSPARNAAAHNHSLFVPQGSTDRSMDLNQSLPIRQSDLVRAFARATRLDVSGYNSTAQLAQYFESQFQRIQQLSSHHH

[17] = biological target: T3, Long-chain-fatty-acid--AMP ligase FadD28 (Mycobacterium tuberculosis, UniProt P9WQ59); assay: Fluorescence polarization aasay to screen for inhibitors that compete for the binding of FadD28 to a bisubstrate Measured in Biochemical System Using Plate Reader - 2147-01_Inhibitor_Dose_CherryPick_Activity.; format: functional, Mycobacterium tuberculosis H37Rv
T3 sequence (P9WQ59 whole entry): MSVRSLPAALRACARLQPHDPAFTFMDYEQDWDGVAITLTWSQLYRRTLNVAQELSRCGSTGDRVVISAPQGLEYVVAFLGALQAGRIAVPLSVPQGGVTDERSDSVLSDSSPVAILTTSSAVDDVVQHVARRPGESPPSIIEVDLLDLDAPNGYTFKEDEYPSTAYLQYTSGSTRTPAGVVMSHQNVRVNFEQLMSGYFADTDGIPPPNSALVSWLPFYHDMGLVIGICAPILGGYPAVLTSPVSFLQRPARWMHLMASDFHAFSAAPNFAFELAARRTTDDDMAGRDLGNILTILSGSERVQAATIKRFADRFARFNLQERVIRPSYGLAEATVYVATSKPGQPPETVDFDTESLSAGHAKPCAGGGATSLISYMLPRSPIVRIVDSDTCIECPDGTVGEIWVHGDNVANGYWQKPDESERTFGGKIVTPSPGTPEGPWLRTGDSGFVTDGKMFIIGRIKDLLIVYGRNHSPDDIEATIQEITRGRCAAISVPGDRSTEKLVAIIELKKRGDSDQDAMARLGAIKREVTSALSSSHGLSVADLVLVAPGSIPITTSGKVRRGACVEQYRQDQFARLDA

[18] = cells

Chain of Perilipin-1/ABHD5 (Q8WTS1 whole entry, the tested form may be a part): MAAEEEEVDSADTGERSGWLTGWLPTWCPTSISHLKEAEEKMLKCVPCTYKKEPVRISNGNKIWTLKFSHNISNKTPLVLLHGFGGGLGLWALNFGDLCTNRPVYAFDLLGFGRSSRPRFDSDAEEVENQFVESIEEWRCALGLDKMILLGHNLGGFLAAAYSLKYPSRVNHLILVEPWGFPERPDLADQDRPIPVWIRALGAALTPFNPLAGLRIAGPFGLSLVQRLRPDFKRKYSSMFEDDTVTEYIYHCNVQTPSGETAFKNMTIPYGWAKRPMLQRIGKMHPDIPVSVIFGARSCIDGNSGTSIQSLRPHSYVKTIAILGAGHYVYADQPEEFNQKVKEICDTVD
Chain of Perilipin-1/ABHD5 (O60240 whole entry, the tested form may be a part): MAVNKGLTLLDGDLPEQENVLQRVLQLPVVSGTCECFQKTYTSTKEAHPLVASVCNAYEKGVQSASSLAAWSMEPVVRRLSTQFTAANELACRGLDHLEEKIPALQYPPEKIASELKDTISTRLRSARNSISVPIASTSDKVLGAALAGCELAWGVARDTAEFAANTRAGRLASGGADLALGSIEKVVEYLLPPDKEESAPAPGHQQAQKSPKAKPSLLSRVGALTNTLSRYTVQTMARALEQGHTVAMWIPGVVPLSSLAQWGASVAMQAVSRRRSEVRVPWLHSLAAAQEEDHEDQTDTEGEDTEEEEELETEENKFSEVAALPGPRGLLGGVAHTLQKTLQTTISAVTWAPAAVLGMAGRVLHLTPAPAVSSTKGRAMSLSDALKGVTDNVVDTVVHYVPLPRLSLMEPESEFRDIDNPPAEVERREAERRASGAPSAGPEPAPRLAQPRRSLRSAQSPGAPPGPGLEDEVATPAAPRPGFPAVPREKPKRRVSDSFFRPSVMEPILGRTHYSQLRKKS
Chain of Polyadenylate-binding protein 1 (P11940 whole entry): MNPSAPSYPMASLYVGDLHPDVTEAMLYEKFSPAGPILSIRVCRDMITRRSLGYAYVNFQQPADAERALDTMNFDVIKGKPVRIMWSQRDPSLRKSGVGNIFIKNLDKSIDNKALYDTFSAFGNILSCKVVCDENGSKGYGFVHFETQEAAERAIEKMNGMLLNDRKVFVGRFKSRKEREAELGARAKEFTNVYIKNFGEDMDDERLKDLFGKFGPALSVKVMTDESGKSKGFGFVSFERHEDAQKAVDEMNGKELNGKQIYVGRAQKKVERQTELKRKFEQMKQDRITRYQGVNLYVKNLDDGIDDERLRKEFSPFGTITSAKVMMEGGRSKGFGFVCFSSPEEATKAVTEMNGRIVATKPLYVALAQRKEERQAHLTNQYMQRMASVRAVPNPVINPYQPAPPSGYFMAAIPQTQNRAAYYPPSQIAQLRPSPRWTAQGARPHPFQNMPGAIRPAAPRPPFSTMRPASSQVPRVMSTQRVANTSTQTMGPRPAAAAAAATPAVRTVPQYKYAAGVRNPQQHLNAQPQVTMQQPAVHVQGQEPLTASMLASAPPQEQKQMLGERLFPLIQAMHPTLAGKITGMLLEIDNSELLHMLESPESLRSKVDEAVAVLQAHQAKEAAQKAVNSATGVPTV
Chain of 1-acylglycerol-3-phosphate O-acyltransferase ABHD5/Perilipin-5 (Q00G26 whole entry, the tested form may be a part): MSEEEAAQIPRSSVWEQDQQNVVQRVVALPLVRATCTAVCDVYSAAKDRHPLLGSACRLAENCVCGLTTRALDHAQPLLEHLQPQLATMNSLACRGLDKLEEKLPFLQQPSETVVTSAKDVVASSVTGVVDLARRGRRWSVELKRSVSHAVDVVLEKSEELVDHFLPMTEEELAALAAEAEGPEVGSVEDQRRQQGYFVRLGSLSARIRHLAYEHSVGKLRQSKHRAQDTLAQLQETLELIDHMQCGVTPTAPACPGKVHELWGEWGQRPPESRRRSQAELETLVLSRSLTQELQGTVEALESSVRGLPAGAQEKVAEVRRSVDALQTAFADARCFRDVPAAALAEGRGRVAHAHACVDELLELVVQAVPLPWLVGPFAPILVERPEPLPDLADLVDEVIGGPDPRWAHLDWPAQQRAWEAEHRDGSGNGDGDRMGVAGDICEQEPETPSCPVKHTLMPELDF
Chain of 1-acylglycerol-3-phosphate O-acyltransferase ABHD5/Perilipin-5 (Q8WTS1 whole entry, the tested form may be a part): as the sequence (Q8WTS1 whole entry, the tested form may be a part) above
Chain of Lysosomal acid glucosylceramidase (P04062 whole entry): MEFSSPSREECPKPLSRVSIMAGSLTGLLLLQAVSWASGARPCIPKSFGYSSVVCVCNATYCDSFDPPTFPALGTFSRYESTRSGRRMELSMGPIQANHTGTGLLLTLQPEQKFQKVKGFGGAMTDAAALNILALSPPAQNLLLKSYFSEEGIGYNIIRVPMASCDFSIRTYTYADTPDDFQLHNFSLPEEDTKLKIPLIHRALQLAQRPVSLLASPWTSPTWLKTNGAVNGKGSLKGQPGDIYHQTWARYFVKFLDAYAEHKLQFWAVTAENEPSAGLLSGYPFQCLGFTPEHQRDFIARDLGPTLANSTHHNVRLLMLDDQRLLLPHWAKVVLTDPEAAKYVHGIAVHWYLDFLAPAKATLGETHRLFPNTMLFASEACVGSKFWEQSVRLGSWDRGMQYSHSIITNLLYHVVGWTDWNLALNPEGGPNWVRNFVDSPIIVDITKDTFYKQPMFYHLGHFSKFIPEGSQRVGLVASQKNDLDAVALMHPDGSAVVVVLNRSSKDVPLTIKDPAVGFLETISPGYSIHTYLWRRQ

CC1Cc2ccccc2N1C(=O)COc1nc2ccccc2nc1N1CCOCC1 (configuration not stated)
EC50 [1]: > 100 µM (not active)

COc1ccc2c(c1)C=CC1(O2)N(CCO)c2ccccc2C1(C)C (configuration not stated)
IC50 [2]: 6.97 µM (active)
IC50 [3]: 7.1 µM (active)

Cc1ccccc1NC(=O)C1CCN(C(=O)c2cccs2)CC1
IC50 [4]: > 100 µM (inactive)
IC50 [5]: > 100 µM (inactive)

COc1ccc(/C=C\C(=O)c2c(O)ccc3c(C)cc(=O)oc23)cc1OC
IC50 [2]: 8.91 µM (active)
IC50 [3]: 4.46 µM (active)

CCCCN(C)C(=O)CCCCn1c(=O)[nH]c2cc(OCC)c(OCC)cc2c1=O
EC50 [6]: > 10 µM (not active)

O=C(CSc1ccc(-c2ccco2)nn1)NCCc1ccccc1
IC50 [4]: 95.2 µM (active)
IC50 [5]: > 100 µM (inactive)

CC(=O)O[C@@]12CO[C@@H]1C[C@H](O)[C@@]1(C)C(=O)[C@H](O)C3=C(C)[C@@H](OC(=O)[C@H](O)[C@@H](NC(=O)c4ccccc4)c4ccccc4)C[C@@](O)([C@@H](OC(=O)c4ccccc4)C12)C3(C)C (some centres not stated)
EC50 [7]: 9.95 µM (active)
EC50 [8]: 1.21 µM (active)
EC50 [9]: 1.78 µM (active)
EC50 [10]: > 120 µM (not active)
EC50 [11]: < 0.1 µM (active)
EC50 [12]: 0.132 µM (active)
EC50 [13]: 6.71 µM (active)
EC50 [14]: 1.16 µM (active)
IC50 [15]: > 80 µM (inactive)

O=C(O)c1cc(-c2ccc(/C=C3\NC(=O)N(c4ccc(Cl)cc4)C3=O)o2)ccc1Cl
EC50 [16]: 39.7 µM (active)
AC50 [17]: 19.5 µM (active)
IC50 [18]: 23.2 µM (active)
